What was measured:
HCMV = assay: Anti-HCMV cytopathogenicity test; format: cell-based, human cytomegalovirus; details: for EC50: Human betaherpesvirus 5, 144 h, inhibition of CPE by 50% in HCMV-infected HELF cells, M.O.I. 0.001–0.002, 6 days; for SI HCMV: selectivity index = CC50 (HELF)/EC50 (HCMV)
Method: (§1) Anti-HCMV (Anti-Human Cytomegalovirus) and anti-MCMV (Anti-Murine Cytomegalovirus) cytopathogenicity tests: The test compounds were employed as 50 millimolar (mM) solutions in dimethyl sulphoxide (DMSO). Ganciclovir, foscarnet and cidofovir served as reference compounds. Following the addition of in each case 2 μl of the 50, 5, 0.5 and 0.05 mM DMSO stock solutions to in each case 98μ of cell culture medium in row […], in duplicate determinations, 1:2 dilutions with in each case 50 μl of medium were prepared up to row 11 of the 96-well plate. The wells in rows 1 and 12 each contained 50 μl of medium. 150 μl of a suspension of 1×10^4 cells (human lung fibroblasts [HELF]) (row 1=cell control) or, in rows 2-12, a mixture of HCMV-infected and non-infected HELF cells (M.O.I.=0.001-0.002), i.e. 1-2 infected cells per 1000 non-infected cells, were then pipetted into each of the wells. Row 12 (without substance) served as virus control. The final test concentrations were 250-0.0005 μM. The plates were incubated at 37° C./5% CO2 for 6 days, i.e. until all cells in the virus controls had been infected (100% cytopathogenic effect [CPE]). The wells were then fixed and stained by adding a mixture of Formalin and Giemsa Stain (30 minutes), washed with doubly distilled water and dried in a drying cabinet at 50° C. The plates were then evaluated visually using an overhead microscope (plaque multiplier from Technomara). From the test plates, the following data were determined: EC50 (HCMV)=substance concentration in μM which inhibits the CPE (cytopathic effect) by 50% compared to the untreated virus control; SI (selectivity index)=CC50 (HELF)/EC50 (HCMV).

[1] = Cytotoxicity on HELF cells in the anti-HCMV cytopathogenicity test; format: cell-based; details: human lung fibroblasts (HELF cells), 6 days incubation, visual evaluation
Method: as §1, with “The” for “Anti-HCMV (Anti-Human Cytomegalovirus) and anti-MCMV (Anti-Murine Cytomegalovirus) cytopathogenicity tests: The”, “CC50 (HELF)=substance” for “EC50 (HCMV)=substance”, “at which,” for “which inhibits the CPE (cytopathic effect) by 50%”, “cell control, no visible cytostatic effects on the cells were noticeable;” for “virus control; SI (selectivity index)=CC50 (HELF)/EC50 (HCMV).”

MCMV = assay: Anti-MCMV cytopathogenicity test; format: cell-based, murine cytomegalovirus; details: for EC50: Murid betaherpesvirus 1, 120 h, MCMV-infected 3T3 mouse cells, M.O.I. 0.05–0.1, 5 days; for SI MCMV: selectivity index, 3T3 CC50 / MCMV EC50
Method: Anti-HCMV (Anti-Human Cytomegalovirus) and anti-MCMV (Anti-Murine Cytomegalovirus) cytopathogenicity tests:
(§2) The test compounds were employed as 50 millimolar (mM) solutions in dimethyl sulphoxide (DMSO). Ganciclovir, foscarnet and cidofovir served as reference compounds. Following the addition of in each case 2 μl of the 50, 5, 0.5 and 0.05 mM DMSO stock solutions to in each case 98μ of cell culture medium in row 2 A-H, in duplicate determinations, 1:2 dilutions with in each case 50 μl of medium were prepared up to row 11 of the 96-well plate. The wells in rows 1 and 12 each contained 50 μl of medium. 150 μl of a suspension of 1×10^4 cells (human lung fibroblasts [HELF]) (row 1=cell control) or, in rows 2–12, a mixture of HCMV-infected and non-infected HELF cells (M.O.I.=0.001–0.002), i.e. 1–2 infected cells per 1000 non-infected cells, were then pipetted into each of the wells. Row 12 (without substance) served as virus control. The final test concentrations were 250–0.0005 μM. The plates were incubated at 37° C./5% CO2 for 6 days, i.e. until all cells in the virus controls had been infected (100% cytopathogenic effect [CPE]). The wells were then fixed and stained by adding a mixture of Formalin and Giemsa Stain (30 minutes), washed with doubly distilled water and dried in a drying cabinet at 50° C. The plates were then evaluated visually using an overhead microscope (plaque multiplier from Technomara).
(§3) Compared to the process described above for HCMV, the anti-MCMV test was carried out with the following changes: a cell-free virus suspension was mixed with a concentrated cell suspension (3T3 mouse cells) and incubated for 15 minutes for adsorption of the viruses, and the suspension was then diluted with medium to 1.3×10^5 cells/ml with a final multiplicity of infection (M.O.I.) of from 0.05–0.1, and in each case 150 μl were dispensed into the wells. The incubation time was 5 days.

[2] = Cytotoxicity on 3T3 cells in the anti-MCMV cytopathogenicity test; format: cell-based; details: mouse, 3T3 mouse cells, 5 days incubation
Method: as §2
(§4) CC50 (HELF)=substance concentration in μM at which, compared to the untreated cell control, no visible cytostatic effects on the cells were noticeable;
as §3

[3] = test system: human lung fibroblasts [HELF]; assay: Cytotoxicity on HELF cells in the anti-HCMV cytopathogenicity test; format: cell-based; details: 6 days incubation, visual evaluation
Method: as §1, with “The” for “Anti-HCMV (Anti-Human Cytomegalovirus) and anti-MCMV (Anti-Murine Cytomegalovirus) cytopathogenicity tests: The”, “CC50 (HELF)=substance” for “EC50 (HCMV)=substance”, “at which,” for “which inhibits the CPE (cytopathic effect) by 50%”, “cell control, no visible cytostatic effects on the cells were noticeable;” for “virus control; SI (selectivity index)=CC50 (HELF)/EC50 (HCMV).”

3T3 mouse cells = assay: Cytotoxicity on 3T3 cells in the anti-MCMV cytopathogenicity test; format: cell-based; details: 5 days incubation
Method: as §2, §4, §3

SMILES	EC50 (HCMV) [nM]	SI HCMV (HCMV)	CC50 at 6 days [1] [nM]	EC50 (MCMV) [nM]	SI MCMV (MCMV)	CC50 at 5 days [2] [nM]	melting point [°C]	CC50 [3] [nM]	CC50 (3T3 mouse cells) [nM]
CC1(C(=O)Nc2cccc(NS(=O)(=O)c3ccc(-c4noc(-c5ccccn5)n4)cc3)c2)CC1 [Example 3, 1-Methyl-N-{3-[({4-[5-(2-pyridinyl)-1,2,4-oxadiazol-3-yl]phenyl}sulphonyl)-amino]phenyl}cyclopropanecarboxamide]	18	<7778	< 140000	8	2875	23000	202	–	–
Cc1cc(-c2nc(-c3ccc(S(=O)(=O)Nc4cccc(NC(=O)C5(C)CC5)c4)cc3)no2)n[nH]1 [Example 9, 1-Methyl-N-{3-[({4-[5-(5-methyl-1H-pyrazol-3-yl)-1,2,4-oxadiazol-3-yl]phenyl}-sulphonyl)amino]phenyl}cyclopropanecarboxamide]	18	2167	–	68	59	–	–	39000	4000
CC(C)(CF)C(=O)Nc1cccc(NS(=O)(=O)c2ccc(-c3noc(-c4ccccn4)n3)cc2)c1 [Example 1, 3-Fluoro-2,2-dimethyl-N-{3-[({4-[5-(2-pyridinyl)-1,2,4-oxadiazol-3-yl]phenyl}-sulphonyl)amino]phenyl}propanamide]	55	2000	110000	19	1737	33000	178.9	–	–
CC1(C(=O)Nc2cccc(NS(=O)(=O)c3ccc(-c4noc(-c5nccc6ccccc56)n4)cc3)c2)CC1 [Example 10, N-{3-[({4-[5-(1-Isoquinolinyl)-1,2,4-oxadiazol-3-yl]phenyl}sulphonyl)-amino]phenyl}-1-methylcyclopropanecarboxamide]	8	>488	> 3900	7	>975	> 7800	–	–	–
